Test results as given in patent US20080269326A1, “Use of 1-Phenyl-3-Dimethylamino-propane Compounds for Treating Neuropathic Pain” (GRUENENTHAL GmbH, priority 2007, published 2008).
“And” between values parts separate entries of the source, which are not always exact repeats. Equal entries are not always repeated.

Tests used:
Assay type in all cases: in vivo, rat
[1] = system: mechanical hyperalgesia in diabetic animals; assay: Streptozotocin diabetic neuropathy, mechanical hyperalgesia (Randall and Sellito); details: diabetic rats
Method: Male Sprague-Dawley rats weighing 160-180 g received an intra-peritoneal injection of streptozotocin (75 mg/kg body weight) dissolved in pH 4.6 citrate buffer. One week later diabetic animals were identified by measuring the blood glucose level, and those with a blood glucose level of ≧17 mM were included in the study. Three and four weeks after administration of streptozotocin the mechanical reaction threshold was measured in diabetic animals by the method of Randall and Sellito (1957 Arch. Int. Pharmacody. […]:409-419) before (pre-test) and at various times after administration of the test substance or vehicle (post-test). […] The maximum pressure exerted on the rear paw was 250 g. The end point of the mechanical reaction threshold in grams was determined based on the reaction of the animal (withdrawal of the rear paw, vocalisation or evasive reaction). The size of the cohort in the individual dose stages was n=10. The maximum possible response in percent (% MPE=% of maximum possible effect) was calculated according to the formula:
% MPE=(post-test−pre-test)/(250−pre-test)×100.
ED50 values (dose at which 50% maximum inhibition occurred) were determined by regression analysis from the % MPE values at the time of the maximum effect.

[2] = system: mononeuropathic pain, withdrawal threshold of rear paw; assay: Mononeuropathy (spinal nerve ligature, SNL), withdrawal threshold by electronic von Frey filament
Method: (§1) Male Sprague Dawley rats (140-180g, Janvier, France) are kept under standard conditions (06.00-18.00 hours light, 18.00-06.00 hours darkness; 20°-24° C. room temperature; 35-70% relative atmospheric humidity, tap water and standard feed as desired) in groups of five animals in Macrolon type 4 cages.
Under pentobarbital narcosis (Narcoren, 60 mg/kg i.p., Merial GmbH, Germany) the spinal nerves L5 and L6 are tightly bound unilaterally on the left side with a silk thread (NC silk black, USP 5/0, metric 1, Braun Melsungen A G, Germany) (Kim and Chung, Pain 1992; 50: 355-63). After the operation the animals were allowed to recover for one week and within this time developed a hypersensitivity on the ipsilateral (left) paw. The hypersensitivity to a pressure stimulus can be measured using an electronic von Frey filament (Somedic, Sweden). For this purpose the animals are placed on a grating under a hood. After the animals became accustomed to the surroundings the damaged (ipsilateral, left) and undamaged (contralateral, right) rear paws are subjected to increasing pressure on the underside of the paw until the animal tries to retract the corresponding paw. The median value of five tests defines the withdrawal threshold of a test time point. The animals are tested on both rear paws before and at various times after administration of the substance or vehicle. For each animal the difference between the test value and pre-test for the ipsilateral and contralateral side is determined, and the result is expressed as the mean value (MW) and standard error of the mean (SEM) for the groups consisting in each case of 10 animals. The difference between the mean difference values of the ipsilateral and contralateral side defines the hypersensitivity induced by mononeuropathy. The statistical significance of the effect of a substance is determined on the basis of the difference values compared to the vehicle group for the ipsilateral and contralateral side, by means of bifactorial variance analysis and post hoc analysis according to Bonferroni.

[3] = system: polyneuropathic pain, withdrawal threshold of rear paw; assay: Polyneuropathy (streptozotocin-induced diabetic neuropathy, STZ), withdrawal threshold by Randall and Selitto
Method: as §1
Rats receive a single i.p. dose of Streptozotocin (STZ, Sigma Aldrich Chemie, Germany) or vehicle (0.1 mM citrate buffer, pH 4.6). After one week the blood sugar values are determined and animals treated with STZ that have a blood sugar value of ≧17 mM are classed as diabetic in the experiment. Diabetic animals develop a hypersensitivity in the rear paws. The hypersensitivity to a pressure stimulus can be measured using a pressure pain instrument (algesiometer; Ugo Basile, Italy) according to the method of Randall and Selitto (Arch. Int. Pharmcodyn. 1957; 111: 409-19) in diabetic animals compared to healthy control animals of the same weight, in the third week after STZ treatment. After the animals had become accustomed to the surroundings, the rear right paw of damaged (diabetic) and undamaged (healthy) animals was subjected to increasing pressure on the upper side of the paw until the corresponding paw is withdrawn or the animal gives a vocal response. This value defines the withdrawal threshold of a test time point. Diabetic and healthy animals are tested before and at various times after administration of the substance or vehicle. For each animal the difference between the test value and pre-test is determined, and for the groups, each consisting of ten animals, the result is expressed as the mean value (MW) and standard error of the mean (SEM). The difference between the mean difference values of the diabetic and healthy animals defines the polyneuropathy-induced hypersensitivity. The statistical significance of the effect of a substance is determined on the basis of the difference values with respect to the vehicle group for diabetic and healthy animals by means of bifactorial variance analysis and post hoc analysis according to Bonferroni.

CC[C@@H](c1cccc(O)c1)[C@@H](C)CN(C)C [Compound 9, (1R,2R)-3-(3-dimethylamino-1-ethyl-2-methylpropyl)-phenol]
ED50 ([1]; Rattus norvegicus, ip, i.p., read-out: Mechanical hyperalgesia ED50 (95% confidence region)): 8.9 mg/kg
Mechanical hyperalgesia Maximum effect in % MPE ([1]; 31.6 mg/kg i.p.): 100% (31.6 mg/kg) % MPE
maximum effect compared among the tested compounds ([1]; i.p.): highest maximum effect
withdrawal threshold, test value - pre-test value (MW) ([2]; 0.1 mg/kg i.v., Contra, 30 min): 0.06 g
withdrawal threshold, test value - pre-test value (MW) ([2]; 0.1 mg/kg i.v., Contra, 60 min): -3.13 g
withdrawal threshold, test value - pre-test value (MW) ([2]; 0.1 mg/kg i.v., Contra, 180 min): -4.30 g
withdrawal threshold, test value - pre-test value (MW) ([2]; 0.1 mg/kg i.v., Ipsi, 30 min): 1.74 g
withdrawal threshold, test value - pre-test value (MW) ([2]; 0.1 mg/kg i.v., Ipsi, 60 min): -0.59 g
withdrawal threshold, test value - pre-test value (MW) ([2]; 0.1 mg/kg i.v., Ipsi, 180 min): -2.24 g
withdrawal threshold, test value - pre-test value (MW) ([2]; 0.316 mg/kg i.v., Contra, 30 min): 0.39 g
withdrawal threshold, test value - pre-test value (MW) ([2]; 0.316 mg/kg i.v., Contra, 60 min): ta −6.20 g
withdrawal threshold, test value - pre-test value (MW) ([2]; 0.316 mg/kg i.v., Contra, 180 min): 2.21 g
withdrawal threshold, test value - pre-test value (MW) ([2]; 0.316 mg/kg i.v., Ipsi, 30 min): 5.78 g
withdrawal threshold, test value - pre-test value (MW) ([2]; 0.316 mg/kg i.v., Ipsi, 60 min): 2.21 g
withdrawal threshold, test value - pre-test value (MW) ([2]; 0.316 mg/kg i.v., Ipsi, 180 min): 1.68 g
withdrawal threshold, test value - pre-test value (MW) ([2]; 1 mg/kg i.v., Contra, 30 min): 2.90 g
withdrawal threshold, test value - pre-test value (MW) ([2]; 1 mg/kg i.v., Contra, 60 min): 2.45 g
withdrawal threshold, test value - pre-test value (MW) ([2]; 1 mg/kg i.v., Contra, 180 min): -6.65 g
withdrawal threshold, test value - pre-test value (MW) ([2]; 1 mg/kg i.v., Ipsi, 30 min): 12.86 g
withdrawal threshold, test value - pre-test value (MW) ([2]; 1 mg/kg i.v., Ipsi, 60 min): 7.09 g
withdrawal threshold, test value - pre-test value (MW) ([2]; 1 mg/kg i.v., Ipsi, 180 min): 2.01 g
withdrawal threshold, test value - pre-test value (MW) ([2]; 3.16 mg/kg i.v., Contra, 30 min): 8.02 g
withdrawal threshold, test value - pre-test value (MW) ([2]; 3.16 mg/kg i.v., Contra, 60 min): 2.85 g
withdrawal threshold, test value - pre-test value (MW) ([2]; 3.16 mg/kg i.v., Contra, 180 min): -0.34 g
withdrawal threshold, test value - pre-test value (MW) ([2]; 3.16 mg/kg i.v., Ipsi, 30 min): 18.43 g
withdrawal threshold, test value - pre-test value (MW) ([2]; 3.16 mg/kg i.v., Ipsi, 60 min): 20.32 g
withdrawal threshold, test value - pre-test value (MW) ([2]; 3.16 mg/kg i.v., Ipsi, 180 min): 11.06 g
withdrawal threshold, test value - pre-test value (MW) ([2]; 10 mg/kg i.v., Contra, 30 min): 31.85 g
withdrawal threshold, test value - pre-test value (MW) ([2]; 10 mg/kg i.v., Contra, 60 min): 10.62 g
withdrawal threshold, test value - pre-test value (MW) ([2]; 10 mg/kg i.v., Contra, 180 min): 4.51 g
withdrawal threshold, test value - pre-test value (MW) ([2]; 10 mg/kg i.v., Ipsi, 60 min): [drawing 7] 19.47 g
withdrawal threshold, test value - pre-test value (MW) ([2]; 10 mg/kg i.v., Ipsi, 180 min): 13.65 g
inhibition of the mononeuropathically-induced withdrawal threshold reduction ([2]; 10 mg/kg i.v., after 30 minutes, ipsilateral): full inhibition
statistically significant minimal effective dose ([2]; i.v., contralateral withdrawal threshold): 10 mg/kg
statistically significant minimal effective dose ([2]; i.v., ipsilateral rear paw, mononeuropathic rats): 1 mg/kg
dosage at which complete inhibition is reached ([2]; i.v., mononeuropathic pain model): 10 mg/kg
withdrawal threshold, test value - pre-test value (MW) ([3]; 0.1 mg/kg i.v., Diabetes, 15 min): 1.0 g
withdrawal threshold, test value - pre-test value (MW) ([3]; 0.1 mg/kg i.v., Diabetes, 30 min): -2.0 g
withdrawal threshold, test value - pre-test value (MW) ([3]; 0.1 mg/kg i.v., Diabetes, 45 min): 6.0 g
withdrawal threshold, test value - pre-test value (MW) ([3]; 0.1 mg/kg i.v., Diabetes, 60 min): -2.0 g
withdrawal threshold, test value - pre-test value (MW) ([3]; 0.1 mg/kg i.v., Naive, 15 min): 4.0 g
withdrawal threshold, test value - pre-test value (MW) ([3]; 0.1 mg/kg i.v., Naive, 30 min): -12.0 g
withdrawal threshold, test value - pre-test value (MW) ([3]; 0.1 mg/kg i.v., Naive, 45 min): -2.0 g
withdrawal threshold, test value - pre-test value (MW) ([3]; 0.1 mg/kg i.v., Naive, 60 min): -5.0 g
withdrawal threshold, test value - pre-test value (MW) ([3]; 0.316 mg/kg i.v., Diabetes, 15 min): 35.0 g
withdrawal threshold, test value - pre-test value (MW) ([3]; 0.316 mg/kg i.v., Diabetes, 30 min): 30.0 g
withdrawal threshold, test value - pre-test value (MW) ([3]; 0.316 mg/kg i.v., Diabetes, 45 min): 24.0 g
withdrawal threshold, test value - pre-test value (MW) ([3]; 0.316 mg/kg i.v., Diabetes, 60 min): 16.0 g
withdrawal threshold, test value - pre-test value (MW) ([3]; 0.316 mg/kg i.v., Naive, 15 min): 17.0 g
withdrawal threshold, test value - pre-test value (MW) ([3]; 0.316 mg/kg i.v., Naive, 30 min): -5.0 g
withdrawal threshold, test value - pre-test value (MW) ([3]; 0.316 mg/kg i.v., Naive, 45 min): -5.0 g
withdrawal threshold, test value - pre-test value (MW) ([3]; 0.316 mg/kg i.v., Naive, 60 min): 2.0 g
withdrawal threshold, test value - pre-test value (MW) ([3]; 1 mg/kg i.v., Diabetes, 45 min): 34.0 g
withdrawal threshold, test value - pre-test value (MW) ([3]; 1 mg/kg i.v., Diabetes, 60 min): 27.0 g
withdrawal threshold, test value - pre-test value (MW) ([3]; 1 mg/kg i.v., Naive, 15 min): 42.0 g
withdrawal threshold, test value - pre-test value (MW) ([3]; 1 mg/kg i.v., Naive, 30 min): 28.0 g
withdrawal threshold, test value - pre-test value (MW) ([3]; 1 mg/kg i.v., Naive, 45 min): -2.0 g
withdrawal threshold, test value - pre-test value (MW) ([3]; 1 mg/kg i.v., Naive, 60 min): 7.0 g
inhibition of the polyneuropathically-induced withdrawal threshold reduction ([3]; 1 mg/kg i.v., after 15 minutes and 30 minutes, diabetic animals): complete inhibition
statistically significant minimal effective dose ([3]; i.v., healthy control animals): 1 mg/kg
dosage at which complete inhibition is reached ([3]; i.v., polyneuropathic pain model): 1 mg/kg
statistically significant minimal effective dose ([3]; i.v., rear paw of diabetic rats): 0.316 mg/kg and 0.3 mg/kg
